Structures can show the parent of a compound that is named as a salt.
Columns and labels:
[1] = test system: LTA4 hydrolase; conditions: background statement, no value; cited from earlier work
[2] = test system: LTB4 production in calcium ionophore-stimulated human blood; test: LTB4 Production by Calcium Ionophore Stimulated Human Blood (HWB); assay type: cell-based; conditions: human blood diluted 1:4, 15 min preincubation at 37° C., ionophore 20 mcg/ml, 10 min; read-out: Inhibition of Calcium Ionophore-induced LTB4 Production in Human Blood IC50 HWB
Procedure: LTB4 and Thromboxane Production by Calcium Ionophore Stimulated Human Blood for LTB4 Hydrolase Inhibitor Activity
Human blood, collected in heparin-containing Vacutainer tubes, was diluted 1:4 with RPMI-1640 media and 200 μl of the diluted blood was added into each of a 96-well microtiter plate. One or more concentrations of the leukotriene A4 hydrolase inhibitor compounds being tested were prepared (diluted in DMSO) and 2 μl added and gently mixed with the diluted whole blood. After incubating for 15 minutes at 37° C. in a humidified incubator, calcium ionophore […] (Sigma Chemical Co., St. Louis, Mo.) was added to a final concentration of 20 mcg/ml and the incubation continued under the same conditions for an additional 10 minutes to allow LTB4 formation. The reaction was terminated by centrifugation (833 g, 10 minutes at 4° C.) and supernatant were analyzed for LTB4 and thromboxane by commercially available enzyme-linked immunoassays (Caymen Chemical Co., Ann Arbor, Mich.) according to the manufacturer's instructions. The IC50 of each test compound was determined from the amount of inhibition of LTB4 production as compared to an essentially identical assay in which no inhibitor compound was present.

[3] = test system: LTB4 production in calcium ionophore-stimulated mouse blood; test: Murine Ex Vivo LTB4 Inhibition, calcium ionophore stimulated mouse blood after oral gavage; assay type: in vivo; conditions: blood collected 1 hour after administration, ionophore A23187 20 mcg/ml, read-out: Murine Ex Vivo LTB4 Inhibition % I LTB4 at 1 hour after administration of 10 mg/kg
Procedure: Ex Vivo LTB4 and Thromboxane Production by Calcium Ionophore Stimulated Mouse Blood for LTB4 Hydrolase Inhibitor Activity
Leukotriene A4 hydrolase inhibitor compounds of the present invention were diluted to a predetermined concentration in phosphate buffered saline containing 2%; DMSO and 1% Tween 80. The compounds were administered by oral gavage to adult male outbred mice weighing approximately 20-30 gm at a dose of 10 mg/kg body weight. (Compounds given at a dose of 50 mg/kg body weight are designated in following Table by the symbol, *) Sixty (60) minutes after administration of an LTA4 inhibitor compound of the invention, blood was collected (into heparin-containing tubes) from the retroorbital sinus. […] The mixture was incubated for 10 minutes at 37° C. in a humidified incubator. The reaction was terminated by centrifugation (833 g. 10 minutes at 4° C.). Supernatant were analyzed for LTB4 and thromboxane by commercially available enzyme-linked immunoassays [Caymen Chemical Co., Ann Arbor, Mich.] in accordance with the manufacturer's instructions. The percent inhibition was determined by comparison to animals treated identically except that the solution administered by oral gavage was devoid of inhibitor compound.

[4] = biological target: T1, recombinant human LTA hydrolase (rhLTAH) (Homo sapiens, UniProt P09960); test: Recombinant Human LTA Hydrolase Assay for LTA Hydrolase Inhibitor Activity; assay type: biochemical; conditions: 250 ng rhLTA4H, 10 min preincubation, room temperature, pH 7.4, 10 min reaction, immunoassay; read-out: Recombinant Human LTA4 Hydrolase Assay IC50 LTA4
T1 construct: made in house; host or cells: Spodoptera frugiperda Sf-9 cells (baculovirus AcNPV)
T1 sequence (P09960 1-611): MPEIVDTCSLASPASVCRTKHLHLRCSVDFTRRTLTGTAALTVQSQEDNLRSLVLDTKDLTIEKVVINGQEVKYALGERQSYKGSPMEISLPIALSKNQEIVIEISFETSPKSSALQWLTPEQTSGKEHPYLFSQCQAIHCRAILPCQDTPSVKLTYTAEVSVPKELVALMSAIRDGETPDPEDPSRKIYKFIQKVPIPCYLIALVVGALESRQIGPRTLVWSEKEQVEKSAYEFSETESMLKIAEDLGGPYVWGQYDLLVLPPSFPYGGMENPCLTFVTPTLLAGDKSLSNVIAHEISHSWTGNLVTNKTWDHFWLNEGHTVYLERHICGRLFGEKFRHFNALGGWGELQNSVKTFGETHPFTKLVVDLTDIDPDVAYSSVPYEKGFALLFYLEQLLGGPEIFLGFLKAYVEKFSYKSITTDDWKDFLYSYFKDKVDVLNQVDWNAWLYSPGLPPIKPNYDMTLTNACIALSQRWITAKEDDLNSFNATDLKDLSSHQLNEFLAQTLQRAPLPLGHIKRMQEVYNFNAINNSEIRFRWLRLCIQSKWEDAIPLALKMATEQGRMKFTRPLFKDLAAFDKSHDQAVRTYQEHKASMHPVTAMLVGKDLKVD
Procedure: Recombinant Human LTA Hydrolase Assay for LTA Hydrolase Inhibitor Activity
Compounds of the present invention were tested for LTA hydrolase inhibitor activity against recombinant human LTA hydrolase (rhLTAH). Recombinant human LTA hydrolase-encoding vectors were prepared and used to express rhLTAH essentially as described by J. Gierse, et al., Protein Expression and Purification, 4, 358-366 (1993). Briefly, LTA hydrolase encoding DNA was amplified by polymerase chain reaction using a pair of oligonucleotide primers based on the nucleotide sequence from the 5'-end, and the complement of the 3'-end, of the coding region of the LTA hydrolase gene, the nucleotide sequence of which gene is known. (See, C. Funk, et al., Proc. Natl. Acad. Sci. U.S.A. 84, 6677-6681 (1987)). A λgt11 human placental cDNA library (Clonetech, Palo Alto, Calif.) provided the nucleic acid template. […] The amplified 1.9 kb DNA was isolated and cloned into the genomic baculovirus, Autographa californica nuclear polyderosis virus (AcNPC) DNA, and the baculovirus expression vector was transfected into Spodoptera frugiperda Sf-9 cells employing the calcium phosphate co-precipitation method (see, M. Summers, et al., Tex. Agric. Exp. Stn. Bull. 1555, 1-57 (1987). Recombinant LTA4 hydrolase enzyme was purified from the transfected Sf-9 cells essentially as described by J. Gierse, et al., supra.
One or more predetermined amounts of a compound of the invention were incubated in assay buffer (0.1 M potassium phosphate, 5 mg/ml fatty acid free BSA, 10% DMSO, pH 7.4) for 10 minutes at room temperature with 250 ng of recombinant hLTA4 H to allow binding, if any, between the enzyme and inhibitor. The stock enzyme solution was 1 mg/m. LTA4 hydrolase, 50 mM Tris, pH 8.0, 150 mM NaCl, 2.5 mM beta-mercaptoethanol, 50% glycerol. The specific activity of the enzyme was about 650 nMoles/min/mg. LTA4 (i.e., substrate) was prepared from the methyl ester of LTA, (Biomol, Inc., Plymouth Meeting, Pa.) by treating the methyl ester with 30 molar equivalents of LiOH at room temperature for 18 hours. The LTA4 substrate in its free acid form was kept frozen at -80° C. until needed. LTA, (free acid) was thawed and diluted in assay buffer (minus DMSO) to a concentration of 350 ng/ml and 25 μl (8 ng) of LTA4 substrate was added to the reaction mixture (total volume of reaction mixture=200 μl at time zero. Each reaction was carried out at room temperature for 10 minutes. The reaction was stopped by diluting 25 μl of the reaction mixture with 500 μl of the assay buffer without DMSO. […] was quantified in the diluted sample by a commercially available enzyme-linked immunoassay [Caymen Chemical Col. Ann Arbor, Mich.] using the method recommended in the manufacturer's instructions and compared to the amount of […] produced in a negative control (i.e., essentially identical conditions except without addition of an inhibitor compound). The IC50 was routinely calculated from the data produced.

[5] = test system: granulocyte; conditions: R. Lewis, et al., 1990; cited from earlier work

IC50 [2] [nM] | IC50 [4] [nM] | SMILES | LTA4 hydrolase inhibitory activity [1] | inhibition at 10 mg/kg [3] [%] | granulocyte agonist activity inducing chemotaxis, aggregation, degranulation, adherence and priming [5]
 |  | C[C@H](CS)C(=O)N1CCC[C@H]1C(=O)O [captopril] | exhibit LTA4 hydrolase inhibitory activity |  | 
53 | 4 | N=C(COc1ccc(Cc2ccccc2)cc1)N1CCCC1 [Example 3, α[[4-(phenylmethyl)phenoxy)methyl]-1-pyrrolidinemethanimine, monohydrochloride] |  | 46 | 
220 | 70 | c1ccc(Cc2ccc(OCC3=NCCN3)cc2)cc1 [Example 7, 4,5-dihydro-2-[[4-(phenylmethyl)phenoxy]methyl]-1H-imidazole] |  | 33 | 
640 | 64 | c1ccc(Cc2ccc(OCCCC3=NCCN3)cc2)cc1 [Example 17] |  | 28 | 
550 | 1170 | COC(=O)CCN1CCN=C1COc1ccc(Cc2ccccc2)cc1 [Example 8] |  | 68 | 
190 | 200 | c1ccc(Cc2ccc(OCC3=NC4CCCCC4N3)cc2)cc1 (stereo not shown) [Example 13] |  | 71 | 
 | 7800 | N=C(COc1ccc(Cc2ccccc2)cc1)NC1C2CC3CC(C2)CC1C3 (stereo not shown) [Example 11, 2-[4-(phenylmethyl)phenoxy]-N-(tricyclo[3.3.1.1 3,7]decan-2-yl)ethanimidamide, monohydrate] |  |  | 
 |  | CC(C)C[C@H](NC(=O)[C@@H](O)[C@H](N)Cc1ccccc1)C(=O)O [bestatin] | exhibit LTA4 hydrolase inhibitory activity |  | 
17900 | > 100000 | NC(COc1ccc(Cc2ccccc2)cc1)=NO [Example 12, N'-hydroxy-2-[4-(phenylmethyl)phenoxy]ethanimidamine] |  | 63 | 
640 | 53 | N=C(CCCOc1ccc(Cc2ccccc2)cc1)N1CCCCC1 [Example 16, α-[3-[4-(phenylmethyl)phenoxy)propyl]-1-peperidinemethanimine, monohydrochloride] |  | 60 | 
71 | 1.3 | CCOC(=O)C1CCN(C(=N)COc2ccc(Cc3ccccc3)cc2)CC1 [Example 5, ethyl 1-[1-imino-2-[4-(phenylmethyl)phenoxy]ethyl]-4-piperidinecarboxylate,monohydrochloride] |  | 62 | 
85 | 4.3 | N=C(COc1ccc(Cc2ccccc2)cc1)N1CCCCC1 [Example 4, α[[4-(phenylmethyl)phenoxy)methyl]-1-peperidinemethanimine, monohydrochloride] |  | 30 | 
200 | 23 | CCOC(=O)CCNC(=N)COc1ccc(Cc2ccccc2)cc1 [Example 6, ethyl 3-[[1-imino-2-[4-(phenylmethyl)phenoxy]ethyl]amino]propanoate, monohydrochloride] |  | 54 | 
77 | 17 | N=C(COc1ccc(Cc2ccccc2)cc1)N1CCC(C(N)=O)CC1 [Example 9, 1-[1-imino-2-[4-(phenylmethyl)phenoxy]ethyl]-4-piperidinecarboxamide] |  | 30 | 
 |  | CCCCC/C=C\C[C@@H](O)/C=C/C=C/C=C\[C@@H](O)CCCC(=O)O [LTB4] |  |  | potent granulocyte agonist

SMILES | IC50 [2] [nM] | IC50 [4] [nM] | LTA4 hydrolase inhibitory activity [1] | inhibition at 10 mg/kg [3] [%] | granulocyte agonist activity inducing chemotaxis, aggregation, degranulation, adherence and priming [5]
N=C(N)COc1ccc(Cc2ccccc2)cc1 [Example 10, 1-imino-2-[4-(phenylmethyl)phenoxy]ethanamine] | 480 | 89 |  | 0 | 

Reference: US6110944A, “LTA4, hydrolase inhibitors” (G. D. Searle & Co., priority 1997, dated 2000)
